# Test results taken from paper PMC4393935, “A Pharmacokinetic Study of Antimalarial 3,5-Diaryl-2-aminopyridine Derivatives” (Malaria Research and Treatment, 2015).
# Where two headings read alike, the source gives them in different places.
# What was measured:
# [1] = parameters: method as in PMID 23189922; conditions: result in words; cited from earlier work
# [2] = Pharmacokinetic study in C57BL/6 mice after oral and intravenous dosing, blood levels by LC-MS/MS; format: in vivo; conditions: for T 1/2 (apparent terminal half-life) / Cmax / half-life / AUC(0-inf) / clearance / Vd: mean ± SD of five mice; for Cmax: read-out: C Max (maximum blood concentration); for half-life: read-out: T 1/2 (apparent terminal half-life); for bioavailability: read-out: BA (oral bioavailability); for AUC(0-inf) / clearance / Vd: mouse; for AUC(0-inf): read-out: AUC0–∞ (total exposure) (converted); for clearance: read-out: CL (blood clearance); for Vd: read-out: Vss (volume of distribution)
# Description: Male and female C57BL/6 mice (20–30 g) were obtained from the University of Cape Town Medical School Animal Unit. The mice were housed in ventilated cages at room temperature (approximately 22°C) with a constant supply of food and water and were monitored twice daily. The study was authorized by the University of Cape Town's Faculty of Health Science Animal Research Ethics Committee before its commencement (Reference number 012/020). All the work was performed according to the guidelines established by Austin and colleagues.
# The compounds (Figure 1) were dissolved in DMSO and diluted further with phosphate buffered saline (PBS) to give a final DMSO concentration of 1%.
# Comprehensive PK studies were performed on groups of five animals to determine the pharmacokinetic properties of the test compounds. This involved the oral dosing (200 μL) of 10-week-old C57BL/6 male mice at 20 mg/kg and intravenous dosing (100 μL) under anesthesia at 4 mg/kg via the dorsal penile vein. For the oral dosage a gavage needle was used for the administration of test compounds directly into the lower esophagus or stomach. Blood samples (approximately 30 μL) were collected serially by needle prick on the tail vein near to the tip of the tail at 0, 0.17, 0.5, 1, 2, 3, 5, 7, and 9 hours after dosing. Lithium-heparin-coated tubes were used to collect the blood samples. The collected blood samples were placed on ice immediately after sampling and were frozen at −80°C until analyzed.
# The blood samples were brought to room temperature and then mixed by vortexing to ensure homogeneity. Twenty microliters of blood was mixed with 50 μL Milli-Q water and 150 μL acetonitrile. The sample was vortexed for 15 seconds, sonicated for 10 minutes, and centrifuged at 13000 ×g for 5 minutes. The supernatant was transferred to a flat-bottom glass insert and placed in a glass vial for analysis.
# The liquid chromatography (LC) system employed was an ultrafast liquid chromatography (UFLC) system (Shimadzu) and the separation of the compounds was performed on a Phenomenex, Luna 5 μm PFP(2), 100 Å, and 50 mm × 2 mm analytical column. For method development, the compounds were prepared at 1 mg/mL stock in methanol and were further diluted with 50% acetonitrile: 0.1% formic acid to make a final concentration of 1 μg/mL. Analyst software version 1.5.2 (AB Sciex) was employed for data acquisition, peak-area integration, and quantitation of compounds in blood samples.
# The mobile phase A consisted of 0.1% formic acid in water (v/v) and mobile phase B consisted of acetonitrile. Samples were maintained at 4°C until injection. The flow rate was set at 500 μL/min and the temperature of the column was maintained at 40°C. For the separation of the compounds the mobile phase was increased from 5% to 95% B over 2 minutes and returned to 5% B within 0.1 minutes and then equilibrated for 3 minutes. Calibration curves were derived in each analytical run in duplicate and were employed to extrapolate the concentration of the compounds in the blood samples.
# The MS system consisted of an AB Sciex 3200 Q-Trap mass spectrometer which was operated at unit resolution in the multiple reaction monitoring (MRM) mode. The calibration range for all the compounds was between 7.8 and 1000 ng/mL and the accuracy (%Nom) for the calibration curves was between 90.31 and 104.0%.
# Noncompartmental analysis was performed on each individual set of data using PK Solutions 2.0 Pharmacokinetic Analysis Software (Summit Research Services, Montrose, USA), which uses an automated Excel-based program. […]
# P. berghei = tested on: P. berghei; parameters: method as in PMID 23189922; conditions: result in words; cited from earlier work
# [3] = tested on: human Ether-à-go-go-Related Gene (hERG); parameters: method as in PMID 23189922; conditions: result in words; cited from earlier work
# [4] = male Sprague Dawley rats, cited from earlier work
# [5] = male, C57BL/6, mouse, whole blood, iv, 4 mg/kg, IV, 4 mg/kg, blood
# [6] = male, C57BL/6, mouse, whole blood, oral, oral 20 mg/kg vs IV 4 mg/kg
# [7] = male, C57BL/6, mouse, whole blood, po, 20 mg/kg, oral, 20 mg/kg, blood
# [8] = male, C57BL/6, mouse, whole blood, po, 20 mg/kg, oral, 20 mg/kg, blood, read-out: T Max
# [9] = male, whole blood, IV, 4 mg/kg, blood
# [10] = male, whole blood, oral, 20 mg/kg, blood
# [11] = oral, 20 mg/kg, blood, 20 mg/kg
structure (smiles),measurement,setting,value
Nc1ncc(-c2ccc(C(=O)N3CCOCC3)cc2)cc1-c1ccc(C(F)(F)F)cc1 [Compound 1],metabolic stability,[1],showed metabolic stability
same,T 1/2 (apparent terminal half-life),"[2]; IV, 4 mg/kg, blood",0.87 ± 0.03 h
same,Cmax,[2]; [5],2110 ± 60 nM
same,half-life,[2]; [5],0.68 to 0.87 h
same,bioavailability,[2]; [6],69 ± 19%
same,Cmax,[2]; [7],1900 nM
same,half-life,[2]; [7],2.5 to 3 h
same,Tmax,[2]; [8],≤ 1 h
same,AUC(0-inf),[2]; [9],1.72 µM·h
same,clearance,"[2]; male, whole blood, IV, 4 mg/kg",83.6 ± 12 mL/min/kg
same,Vd,"[2]; male, whole blood, IV, 4 mg/kg",9.51 ± 1 L/kg
same,AUC(0-inf),[2]; [10],5.99 µM·h
same,T Max,"[2]; oral, 20 mg/kg, blood",1 h
same,T 1/2 (apparent terminal half-life),"[2]; oral, 20 mg/kg, blood",2.53 ± 0.1 h
same,Cmax,[2]; [11],1920 ± 30 nM
same,activity in a P. berghei infected mouse model,P. berghei,displayed activity
same,hERG activity compared to the parent compound 3,[3],reduced hERG activity
CNS(=O)(=O)c1ccc(-c2cnc(N)c(-c3ccc(C(F)(F)F)nc3)c2)cc1 [Compound 2],metabolic stability,[1],showed metabolic stability
same,T 1/2 (apparent terminal half-life),"[2]; IV, 4 mg/kg, blood",0.68 ± 0.6 h
same,Cmax,[2]; [5],960 ± 60 nM
same,half-life,[2]; [5],0.68 to 0.87 h
same,bioavailability,[2]; [6],59.7%
same,Cmax,[2]; [7],3300 nM
same,half-life,[2]; [7],2.5 to 3 h
same,Tmax,[2]; [8],≤ 1 h
same,Tmax,"[2]; male, C57BL/6, mouse, whole blood, po, 20 mg/kg, oral, 20 mg/kg, blood, read-out: time to maximum concentration",≤ 0.5 h
same,AUC(0-inf),[2]; [9],1.75 µM·h
same,clearance,"[2]; male, whole blood, IV, 4 mg/kg",92.6 ± 19 mL/min/kg
same,Vd,"[2]; male, whole blood, IV, 4 mg/kg",27 ± 1.3 L/kg
same,AUC(0-inf),[2]; [10],5.23 µM·h
same,BA (oral bioavailability),[2]; oral 20 mg/kg vs IV 4 mg/kg,60 ± 5%
same,T 1/2 (apparent terminal half-life),"[2]; oral, 20 mg/kg, blood",2.96 ± 0.2 h
same,Cmax,[2]; [11],3340 nM
same,activity in a P. berghei infected mouse model,P. berghei,displayed activity
same,hERG activity compared to the parent compound 3,[3],reduced hERG activity
COc1ccc(-c2cc(-c3ccc(S(C)(=O)=O)cc3)cnc2N)cn1 [Compound 3],apparent t 1/2,[4]; dosed intravenously,8 h
same,apparent t 1/2,[4]; dosed orally,6.5 h
same,AUC,[4]; intravenous,789 µM·min
same,AUC,[4]; oral,6880 µM·min
same,clearance rate,[4],18.3 mL/min/kg
same,oral bioavailability,[4],> 100%
